Data taken from patent US5298523A, “Method for treating transplant patients using mycalamide compounds” (priority 1992, dated 1994).
Read-outs that look alike come from different tables or passages of the source.

Assays:
[1] = test system: T cells; assay: T cell viability by trypan blue exclusion; type: cell-based, murine
Procedure: (§1) Determination of mycalamide A toxicity. The toxicity of mycalamide A on murine splenocytes and human PBL was determined using a colorimetric assay, based on the ability of viable cells to convert the colorless tetrazolium salt, 3-(4,5-dimethylthiazol-2yl)-2,5-diphenyl tetrazolium bromide (MTT) to a colored formazan product and trypan blue exclusion. For the colorimetric assay, a volume of 0.075 ml of an MTT solution (550 μg/ml of MTT in TCM) was added to test and control wells containing one of the populations of splenocytes or test wells and incubated for 5-6 hours following the initial incubation period. Microtiter plates were centrifuged at 100× g, supernatants carefully removed, and a volume of 0.20 ml of isopropyl alcohol was added to each well to dissolve the formazan crystals. The absorbance at 570 nm was determined for each well using an ELISA plate reader. […] As an additional parameter of toxicity, wells containing cultured lymphocytes with various dilutions of mycalamide A were examined with trypan blue, and the percentage of dye-excluding (viable) cells was determined.
(§2) Compounds were added as indicated. Cells were harveste
(§3) Each data point represents the mean value o

[2] = T cell viability by trypan blue exclusion; type: cell-based, murine; conditions: t cells, read-out: percentage of trypan blue-positive cells
Procedure: as §1, §2, §3

[3] = test system: murine CD4^+ T cells; assay: Activation of CD4+ T cells by anti-CD3 mAb/mB7; type: cell-based, murine (BALB/c)
Procedure: (§4) (A) Costimulation of T cells with anti-CD3 mAb and mB7. […] (B) Costimulation of T cells with mB7 and PMA. […] All cultures were incubated for 48 hours and pulsed with 1 μCi [ ^3 H] thymidine/well for the last 6 hours of the incubation period to assay for T cell proliferation.
(§5) (A) Costimulation of T cells with anti-CD3 mAb and mB7. 2×10^5 purified BALB/c CD4^+ T lymphocytes were stimulated with the indicated concentrations of anti-CD3 mAb in the presence of medium (.largecircle.), 2×10^4 paraformaldehyde-fixed CHO-mB7 cells (.quadrature.), or 2×10^4 paraformaldehyde-fixed CHO-mB7 cells in the presence of 0.1 nM FK506 (.gradient.), 1 nM FK506 (Δ), or 10 nM FK506 ( ). (B) Costimulation of T cells with mB7 and PMA. 2×10^5 purified BALB/c CD4^+ T lymphocytes were stimulated with the indicated concentrations of PMA and either medium (.largecircle.), 2×10^4 paraformaldehyde-fixed CHO-mB7 cells (.quadrature.), or paraformaldehyde-fixed CHO-mB7 cells in the presence of 0.1 nM FK506 (.gradient.), 1 nM FK506 (Δ), or 10 nM FK506 ( ). All cultures were incubated for 48 hours and pulsed with 1 μCi [^3 H] thymidine/well for the last 6 hours of the incubation period to assay for T cell proliferation.
as §5, with “pM mycalamide A” for “nM FK506”
mB7-mediated activation of murine CD4^+ T cells. Mouse T cells were purified as follows: splenocytes were depleted of red blood cells by treatment with Tris-NH4 Cl. T cells were enriched by nylon wool fractionation. CD4^+ T cells from BALB/c mice were purified by two-fold treatment with a mixture of anti-MHC Class II and anti-CD8 monoclonal antibodies and rabbit complement. Chinese hamster ovary cells (CHO) and CHO cells transfected with the murine B7 molecule (CHOmB7) were fixed with 1% paraformaldehyde prior to addition to the cultures. Microcultures were set up in duplicate 96-well plates. […] All cultures were incubated for 48 hours and pulsed with 1 μCi ^3 H-thymidine/well for the last 6 hours of the incubation period to assay for T cell proliferation.

[4] = test system: murine CD4^+ T cells; assay: Activation of CD4+ T cells by PMA/mB7; type: cell-based, murine (BALB/c); conditions: in words
Procedure: as §4, §5
(A) Costimulation of T cells with anti-CD3 mAb and mB7. […]

[5] = test system: murine splenocytes; assay: Mitogen-induced proliferation of murine splenocytes; type: cell-based; conditions: for activity at 0.5 µg/mL / activity at 0.05 µg/mL / activity at 0.005 µg/mL / activity at 0.0005 µg/mL / activity at 50 pg/mL: Mus musculus, Splenocyte; for activity at 0.5 µg/mL: 5.0 × 10^-1 μg/ml; for activity at 0.05 µg/mL: 5.0 × 10^-2 μg/ml; for activity at 0.005 µg/mL: 5.0 × 10^-3 μg/ml; for activity at 0.0005 µg/mL: 5.0 × 10^-4 μg/ml; for activity at 50 pg/mL: 5.0 × 10^-5 μg/ml
Procedure: Preparation of splenocyte cell suspensions. […] The resulting supernatant was then transferred to another sterile centrifuge tube, and the cell concentration adjusted to 2×10^6 cells/ml dilution with TCM.
Mitogen studies. The effects of mycalamide A on the mitogen-induced proliferation of murine splenocytes was investigated. Splenocytes (2×10^5 /well) from C57BL/6J or BALB/c mice were incubated with 1.0 μg/ml of Con A, 10 μg/ml of phytohemagglutinin (PHA), lipopolysaccharide (LPS) or pokeweed mitogen (PWM) and various concentrations of mycalamide A at 37° C. in a 5% CO2, humidified atmosphere for 90 hours. A volume of […] of a 20.0 μCi/ml of ^3 H-thymidine was added to each well, and the plates incubated for an additional 6 hours. Plates were harvested, and ^3 H-thymidine incorporation determined by counting samples in a liquid scintillation counter.

[6] = Con A, read-out: Con A, % of control
[7] = LPS, read-out: LPS, % of control
[8] = PHA, read-out: PHA, % of control
[9] = PWM, read-out: PWM, % of control

C=C1CC(OC)(C(O)C(=O)NC2OCOC3C2OC(CC(O)CO)C(C)(C)C3OC)OC(C)C1C (stereo not shown) [Mycalamide A, mycalamide A]
number of cells excluding trypan blue ([1]; 1 pM, Experiment 1, 20 hours): 1.39 × 10^6 cells | number of cells excluding trypan blue ([1]; 1 pM, Experiment 2, 20 hours): 1.45 × 10^6 cells | percentage of trypan blue-positive cells ([1]; 1 pM, Experiment 2, 20 hours): < 2% | number of cells excluding trypan blue ([1]; 5 pM, Experiment 1, 20 hours): 1.41 × 10^6 cells | number of cells excluding trypan blue ([1]; 5 pM, Experiment 2, 20 hours): 1.68 × 10^6 cells | percentage of trypan blue-positive cells ([1]; 5 pM, Experiment 2, 20 hours): < 2% | number of cells excluding trypan blue ([1]; 10 pM, Experiment 2, 20 hours): 1.49 × 10^6 cells | effect on T cell viability ([1]; trypan blue exclusion, in words): did not significantly affect the cell viability | cytotoxicity at 20 h, 1e-06 µM ([2]; 1 pM, Experiment 1, 20 hours): < 2% | cytotoxicity at 20 h, 5e-06 µM ([2]; 5 pM, Experiment 1, 20 hours): < 2% | cytotoxicity at 20 h, 1e-05 µM ([2]; 10 pM, Experiment 2, 20 hours): < 2% | effect on anti-CD3/mB7 activation of CD4+ cells ([3]; anti-CD3/mB7, in words): blocks activation | times more potent than FK506 ([3]; immunosuppressive activity vs FK506): 10 times | times more potent than cyclosporin A ([3]; immunosuppressive activity vs cyclosporin A): approximately 1000 times | suppressive activity compared with FK506 or CsA ([3]; in words): superior to FK506 or CsA | effect on PMA/CHO-mB7 stimulation of CD4+ cells [4]: blocks activation | suppression of Con A, LPS, and PWM stimulation ([5]; 5×10^-5 μg/ml, Con A, LPS, PWM, in words): suppressed | activity at 0.5 µg/mL [5, 6]: 0% | activity at 0.05 µg/mL [5, 6]: 0% | activity at 0.005 µg/mL [5, 6]: 0% | activity at 0.0005 µg/mL [5, 6]: 0% | activity at 50 pg/mL [5, 6]: 0% | activity at 0.5 µg/mL [5, 7]: 0% | activity at 0.05 µg/mL [5, 7]: 0% | activity at 0.005 µg/mL [5, 7]: 0% | activity at 0.0005 µg/mL [5, 7]: 0% | activity at 50 pg/mL [5, 7]: 68% | activity at 0.5 µg/mL [5, 8]: 0% | activity at 0.05 µg/mL [5, 8]: 0% | activity at 0.005 µg/mL [5, 8]: 0% | activity at 0.0005 µg/mL [5, 8]: 38% | activity at 50 pg/mL [5, 8]: 139% | activity at 0.5 µg/mL [5, 9]: 0% | activity at 0.05 µg/mL [5, 9]: 0% | activity at 0.005 µg/mL [5, 9]: 0% | activity at 0.0005 µg/mL [5, 9]: 0% | activity at 50 pg/mL [5, 9]: 62%
